Laboratory results as given in ChEMBL document CHEMBL3813604, “Two pairs of farnesyl phenolic enantiomers as natural nitric oxide inhibitors from Ganoderma sinense” (Bioorg Med Chem Lett, 2016).

These compounds were tested on RAW264.7 (assay: Antiinflammatory activity in mouse RAW264.7 cells assessed as inhibition of LPS-induced nitric oxide production after 24 hrs by Griess assay). Details: RAW264.7, 24 h.
Type: functional, cell-based
Work on C[C@]12CCC(=O)C=C1CC[C@@H]1[C@@H]2[C@@H](O)C[C@@]2(C)[C@H]1CC[C@]2(O)C(=O)CO [HYDROCORTISONE] yielded an IC50 of 58800 nM.
C/C(=C\CC/C(=C/CCC1=C[C@@H](c2cc(O)ccc2O)OC1=O)CO)COC(=O)/C=C/c1ccc(O)cc1 gave an IC50 of 1150 nM.
In the case of CO[C@]1(c2cc(O)cc(O)c2)C=C(CC/C=C(\CO)CC/C=C(\C)COC(=O)/C=C/c2ccc(O)cc2)C(=O)O1, the IC50 is reported as 2260 nM.
For CO[C@@]1(c2cc(O)cc(O)c2)C=C(CC/C=C(\CO)CC/C=C(\C)COC(=O)/C=C/c2ccc(O)cc2)C(=O)O1, the IC50 was 1510 nM.
For C/C(=C\CC/C(=C/CCC1=C[C@H](c2cc(O)ccc2O)OC1=O)CO)COC(=O)/C=C/c1ccc(O)cc1, the IC50 was 1420 nM.
